{"source": "patent US12324794B2", "about": "“Method to alleviate the symptoms of PMS” (priority 2016, dated 2025)", "key": {"women with PMS / PMDD": {"tested_on": "women with PMS / PMDD", "experiment": "Case studies of women with PMS or PMDD symptoms (Examples 2-6)", "assay_type": "in vivo, human", "text": "Below are some case studies and a human trial, both of which show significant improvement in symptoms. While acne can be measured by inspection, the other symptoms rely upon the internal feelings of the patient. To measure symptoms that deal with tender breasts, fatigue, difficulty concentrating, diminished impulse control, irritability, anxiety, tension, anger, depression, suicidal thoughts, feeling “out of control”, insomnia, cramping and rapid fluctuations in mood, one skilled in the art must rely on the interpretation of patient. This can be done through an interview with an expert, such as a medical doctor, or through validated survey forms that specifically address these symptoms. Examples of these forms that have been validated by independent clinical trial include: • Buss Perry Aggression Questionnaire (Anger) • Clinical Anger Scale (Anger) • Cohen-Perceived-Stress Scale (Anxiety) • Generalized-Anxiety-Scale (Anxiety) • Generalized Anxiety Disorder 7-item (GAD-7) scale (Anxiety) • Beck's Depression Inventory (Depression) • Center for Epidemiologic Studies Depression Scale (Depression) • Hospital Anxiety and Depression Scale (Anxiety and Depression) • Premenstrual Assessment Form (anger, depression, fatigue and anxiety) • Mood Calendar Tracking (anger, depression, fatigue and anxiety) A person experienced severe anger and depression one day a month, right before their period, every month. […] The cramping was not relieved by Midol or Aspirin. The person was despondent even after their symptoms of PMDD left because of guilt over their behavior during this time period. […] They reported that it was like a 1,000 pound weight being taken off their shoulders. The person in Example 3 continued to take oxaloacetate each month for the next three months and monitored their progress. They took one pill starting about 10 days before their period, and continued taking 1 pill daily until the first sign of PMS, when they increased the dosage to 2 capsules per day until the 2nd day of their period. […] They reported that “I am no longer a suicidal, psychotic crazy person every month. And I know it is the supplements because this will be the 3rd month with no PMDD and that is NOT a coincidence.” A person presented with severe PMDD ever since they were […]. They are now 26. Typically, the patient had to take-off from work 3 days out of each month, and self-seclude, because they could not be with people. […] The improvements with anhydrous enol-oxaloacetate have continued for over 2 years with this patient. A person presented with severe anxiety attacks and fatigue during the week before menstruation."}, "women with PMS [1]": {"tested_on": "women with PMS", "experiment": "Suicidal Ideation item of Beck's Depression Inventory, Clinical Trials 1 and 2 compiled (Example 9)", "assay_type": "in vivo, human", "settings": "31 women with baseline score above 0, both trials compiled", "text": "In the clinical trials within Examples 7 and 8, the Beck's Depression Inventory was used. One portion of the Beck's Depression Inventory specifically deals with “Suicidal Ideation” (thoughts about committing suicide). The survey scores the relative severity of suicidal ideation via numerical scoring as follows: • Score Value • 0 I don't have any thoughts of killing myself. • 1 I have thoughts of killing myself, but I would not carry them out. • 2 I would like to kill myself. • 3 I would kill myself if I had the chance. The results of Clinical Trial 1 and 2 were compiled to examine the Suicidal Ideation of the women who participated in this clinical trial. Out of the 45 women in both trials, 31 women experienced a score above 0 in the baseline survey. No women in the completed study who scored 0 in the baseline study increased their suicidal ideation score. In order to examine suicidal ideation statistically, women with a 0 score on their baseline survey were removed from the analysis. P values were calculated using a student's T test, using a two-tailed distribution with paring of the data to the individual."}, "women with PMS [2]": {"tested_on": "women with PMS", "experiment": "Randomized, double-blinded, placebo controlled cross-over trial for PMS emotional symptoms (Example 7)", "assay_type": "in vivo, human", "settings": "200 mg oxaloacetate per day, approx. 28 days, 26 women", "method": "A randomized, double blinded placebo-controlled crossover trial was conducted using 200 mg oxaloacetate per day as the active ingredient, and rice flour as the placebo ingredient. An Institutional Review Board (IRB) has approved the clinical plan, and patients have signed the human consent forms. Patients were located from across the United States. Consent forms and survey questionnaires were filled out on-line. The patients and the lead investigator were unaware of which product, Active or Placebo, the patients were receiving. Inclusion Criteria for the trial: • Able to give informed consent and follow instructions per the protocol • Female with history of mood swings, anxiety or depressed mood associated with PMS • Ages 21 to 50 at the start of the study • Not pregnant Exclusion Criteria for the trial: • A formal diagnosis of Major Depression • Previously taken Oxaloacetate as a supplement • Participation in other drug studies or use of other investigational products within 30 days prior to baseline • If unwilling to discontinue use of other nutritional supplements taken for the purpose of PMS modulation during the study • Any unstable or clinically significant condition that would impair the subject's ability to comply with study follow up. • […] of Premenstrual Dysphoric Disorder (PMDD) (a severe form of PMS). After signing the human consent forms, the patient took four different surveys to assess their current emotional state during PMS. • The Beck Depression Inventory modified to examine the week prior to the person's period (21 questions) • The Cohen Perceived Stress form, modified to examine the week prior to the person's period (10 questions). • The Generalized Anxiety Disorder 7-Item Scale modified to examine the week prior to the person's period (7 questions). • The Buss Perry Aggression questionnaire modified to examine the week prior to the person's period (29 questions). The time to fill out the composite 4-survey questionnaire is less than 30 minutes. The questionnaires are filled out on-line and made available to investigator team. […] After a “baseline” 4-survey questionnaire was completed by the women, they would be randomly sent either the Active oxaloacetate compound (200 mg oxaloacetate) or the Placebo (200 mg rice flour). The women would take a daily dose of the compound received, starting with their menstrual period, and continuing daily until the following menstrual period. At that following menstrual period, the women would again complete the 4-survey questionnaire. […] This is a “cross-over” type design. The women take the new product staring on a menstrual period, and continue taking it daily until a following menstrual period. The then again complete the 4-survey questionnaire. In this trial, each woman completed a baseline survey, and a survey after approximately 28 days for oxaloacetate, and a survey after approximately 28 days for rice flour. 26 women completed the study. Half of the women took oxaloacetate first, and the other half took a placebo first. […] P values were calculated using a student's T test, using a two-tailed distribution with paring of the data to the individual."}, "[3]": {"settings": "in vivo", "text": "The dose ratio between toxic and therapeutic effects is the therapeutic index and it can be expressed as the ratio LD50/ED50."}, "women with PMS [4]": {"tested_on": "women with PMS", "experiment": "Single-blinded, placebo controlled cross-over trial for PMS emotional symptoms (Example 8)", "assay_type": "in vivo, human", "design": "concentration or dose not given beside the values", "settings": "placebo first, oxaloacetate second, 19 women", "text": "The clinical trial of Example 7 was repeated with 19 women, except that the trial was single blinded. The placebo was sent to all women first, and the oxaloacetate active second. […] This should not have come as a complete surprise to us, as oxaloacetate exerts a beneficial effect on gene expression (movement towards the calorie restriction metabolic state) that can have positive effects for several weeks after discontinuation of the product. To better measure the oxaloacetate effect, therefore, oxaloacetate was given second in this trial. P values were calculated using a student's T test, using a two-tailed distribution with paring of the data to the individual."}, "[5]": {"experiment": "Stability / decarboxylation", "assay_type": "physicochemical", "text": "The enol and keto form of oxaloacetic acid are tautomers, and in water form a chemical equilibrium. […] The keto-oxaloacetate decarboxylates quickly to pyruvate. As the keto-oxaloacetate form disappears due to decarboxylation, the enol and hydrated form convert to keto-oxaloacetate, and then also decarboxylate into carbon dioxide and pyruvate, until all the oxaloacetate is consumed. Note that neither of the byproducts of oxaloacetate decarboxylation, carbon dioxide and pyruvate, are effective in treating the symptoms of PMS and PMDD. If there are divalent cations in the fluid, which is very common, the decarboxylation of oxaloacetic acid can happen within a day. […] (See Cash, U.S. Pat. No. 9,050,306). […] Water catalyzes the equilibrium reaction between enol- and keto oxaloacetic acid. Note that only the keto form of oxaloacetic acid decarboxylates into pyruvate and carbon dioxide spontaneously, not the enol-form. There is an energy gap between the enol and keto form which is bridged when the compounds are exposed to water, however, this same energy gap prevents the conversion of the enol to keto form when the product is kept dry. Once there is a conversion to the keto form, decarboxylation can spontaneously occur at temperatures above the freezing point of water. […] Drying effectiveness can be increased by increasing the drying time, drying under vacuum, by using anhydrous washes of isopropyl alcohol or ethyl alcohol to absorb the remaining water (and then evaporating the alcohol), or by performing multiple washes with hexane or non-water soluble solvent to physically remove the water, typically after an alcohol wash. The non-water soluble solvent would then be evaporated off. […] Hexane is a residual solvent in many commercial food preparations including decaffeinated coffee, and is not toxic in small quantities. Alternatively, the final wash can be performed with liquefied propane, liquefied butane, ethyl acetate, ethane, carbon dioxide, or nitrous oxide to reduce the water content."}, "[6]": {"experiment": "Forms of oxaloacetic acid in water", "assay_type": "physicochemical", "settings": "pH 6.9", "method": "In some embodiments, the present invention provides methods for treating symptoms of PMS and methods for treating symptoms of PMS and PMDD comprising administration of compositions comprising oxaloacetate. Oxaloacetic acid, when dissolved in water, ionizes to oxaloacetate. The oxaloacetate can be in three forms depending on the pH of the solution. At low pH (<1.5) and low temperature (<4° C.) oxaloacetate hydrates. […] Outside of water solutions, the solid form of oxaloacetic acid is primarily in the enol form. All forms of oxaloacetic acid and the ion oxaloacetate are absorbed by the body. The hydrated form is mostly converted once it enters the higher pH of the body outside of the intestinal tract to the keto and enol form. […] Enol-oxaloacetate is converted to keto-oxaloacetate with the enzyme enol-keto tautomerase, a ubiquitous enzyme throughout the human body. The enol and keto form of oxaloacetic acid are tautomers, and in water form a chemical equilibrium. […] The keto-oxaloacetate decarboxylates quickly to pyruvate. As the keto-oxaloacetate form disappears due to decarboxylation, the enol and hydrated form convert to keto-oxaloacetate, and then also decarboxylate into carbon dioxide and pyruvate, until all the oxaloacetate is consumed. Note that neither of the byproducts of oxaloacetate decarboxylation, carbon dioxide and pyruvate, are effective in treating the symptoms of PMS and PMDD. If there are divalent cations in the fluid, which is very common, the decarboxylation of oxaloacetic acid can happen within a day."}}, "data": [{"compound": "CC(=O)Oc1ccccc1C(=O)O", "note": "[Aspirin, reference compound]", "values": [{"measurement": "relief of extreme cramping (pain level 10)", "setting": "women with PMS / PMDD; person with PMDD, history (Example 3)", "result": "not relieved"}]}, {"compound": "O=C(O)CC(=O)C(=O)O", "note": "[Oxaloacetate]", "values": [{"measurement": "Suicidal Ideation, reduction from Baseline", "setting": "women with PMS [1]", "result": 47.90, "unit": "%"}, {"measurement": "Beck's Depression Inventory, reduction from Placebo", "setting": "women with PMS [2]", "result": 25.57, "unit": "%"}, {"measurement": "Beck's Depression Inventory, reduction from baseline", "setting": "women with PMS [2]", "result": 50.88, "unit": "%"}, {"measurement": "Buss-Perry Aggression Scale, reduction from Placebo", "setting": "women with PMS [2]", "result": 9.22, "unit": "%"}, {"measurement": "Buss-Perry Aggression Scale, reduction from baseline", "setting": "women with PMS [2]", "result": 15.10, "unit": "%"}, {"measurement": "Cohen Perceived Stress, reduction from Placebo", "setting": "women with PMS [2]", "result": 16.51, "unit": "%"}, {"measurement": "Cohen Perceived Stress, reduction from baseline", "setting": "women with PMS [2]", "result": 34.35, "unit": "%"}, {"measurement": "Generalized Anxiety Disorder, reduction from Placebo", "setting": "women with PMS [2]", "result": 28.08, "unit": "%"}, {"measurement": "Generalized Anxiety Disorder, reduction from baseline", "setting": "women with PMS [2]", "result": 49.73, "unit": "%"}, {"measurement": "LD50", "setting": "[3]", "result": "above 5 g/kg of body weight"}, {"measurement": "Beck's Depression Inventory, reduction from Placebo", "setting": "women with PMS [4]", "result": 37.12, "unit": "%"}, {"measurement": "Beck's Depression Inventory, reduction from baseline", "setting": "women with PMS [4]", "result": 54.42, "unit": "%"}, {"measurement": "Buss-Perry Aggression Scale, reduction from Placebo", "setting": "women with PMS [4]", "result": 14.06, "unit": "%"}, {"measurement": "Buss-Perry Aggression Scale, reduction from baseline", "setting": "women with PMS [4]", "result": 17.81, "unit": "%"}, {"measurement": "Cohen Perceived Stress, reduction from Placebo", "setting": "women with PMS [4]", "result": 24.40, "unit": "%"}, {"measurement": "Cohen Perceived Stress, reduction from baseline", "setting": "women with PMS [4]", "result": 36.67, "unit": "%"}, {"measurement": "Generalized Anxiety Disorder, reduction from Placebo", "setting": "women with PMS [4]", "result": 38.02, "unit": "%"}, {"measurement": "Generalized Anxiety Disorder, reduction from baseline", "setting": "women with PMS [4]", "result": 54.23, "unit": "%"}]}, {"compound": "O=C(O)CC(=O)C(=O)O", "note": "[anhydrous enol-oxaloacetate, anhydrous enol-oxaloacetic acid]", "values": [{"measurement": "fatigue during the week before menstruation", "setting": "women with PMS / PMDD; person, two 100 mg lozenges under the tongue (Example 6)", "result": "greatly reduced"}, {"measurement": "time until panic attack subsided", "setting": "women with PMS / PMDD; person, two 100 mg lozenges under the tongue for 5 minutes (Example 6)", "result": "less than 5 minutes"}, {"measurement": "severe premenstrual anger and depression", "setting": "women with PMS / PMDD; person, two capsules of 100 mg on that day (Example 2)", "result": "reduced in intensity to the point where they could manage the symptoms easily"}, {"measurement": "stability at room temperature", "setting": "[5]; room temperature, kept dry", "result": "exceeding one year"}]}, {"compound": "O=C(O)CC(=O)C(=O)O", "note": "[oxaloacetic acid]", "values": [{"measurement": "time to decarboxylation in fluid", "setting": "[5]; divalent cations in the fluid", "result": "within a day"}, {"measurement": "stability of the hydrated form", "setting": "[5]; very low pH, temperatures not exceeding 8° C.", "result": "less than one week"}, {"measurement": "share in the enol form", "setting": "[6]", "result": 11, "unit": "%"}, {"measurement": "share in the hydrated form", "setting": "[6]", "result": 5, "unit": "%"}, {"measurement": "share in the keto form", "setting": "[6]", "result": 84, "unit": "%"}]}]}
